In ChEMBL document CHEMBL3421558, “Structure activity relationship of substituted 1,5-naphthyridine analogs of oxabicyclooctane-linked novel bacterial topoisomerase inhibitors as broad-spectrum antibacterial agents (Part-4)” (Bioorg Med Chem Lett, 2015):
Values after ≈ are worked out from the molar mass of the structure shown.

Key:
Staphylococcus aureus [1] = test: Antimicrobial activity against Staphylococcus aureus Smith by micro broth dilution or agar based method; format: functional; details: Staphylococcus aureus, Smith; read-out: MIC
Staphylococcus aureus [2] = test: Antimicrobial activity against methicillin-resistant Staphylococcus aureus OIT971 by micro broth dilution or agar based method; format: functional
Streptococcus pneumoniae = test: Antimicrobial activity against Streptococcus pneumoniae IID553 by micro broth dilution or agar based method; format: functional; details: Streptococcus pneumoniae, IID553; read-out: MIC
Enterococcus faecium = test: Antimicrobial activity against VanA expressing vancomycin-resistant Enterococcus faecium by micro broth dilution or agar based method; format: functional; details: Enterococcus faecium; read-out: MIC
Escherichia coli = test: Antimicrobial activity against Escherichia coli ATCC 25922 by micro broth dilution or agar based method; format: functional; details: Escherichia coli, ATCC 25922; read-out: MIC
Acinetobacter baumannii = test: Antimicrobial activity against Acinetobacter baumannii IID876 by micro broth dilution or agar based method; format: functional; details: Acinetobacter baumannii, IID876; read-out: MIC
Pseudomonas aeruginosa = test: Antimicrobial activity against Pseudomonas aeruginosa PAO1 by micro broth dilution or agar based method; format: functional; details: Pseudomonas aeruginosa, PAO1; read-out: MIC
[3] = biological target: Voltage-gated inwardly rectifying potassium channel KCNH2 (Homo sapiens, UniProt Q12809); test: Inhibition of MK499 binding to human ERG
Staphylococcus aureus [4] = test: Potency index, ratio of MIC for quinolone-resistant Staphylococcus aureus MS5935 to MIC for quinolone-[…]; format: functional

Chain of Voltage-gated inwardly rectifying potassium channel KCNH2 (Q12809 whole entry): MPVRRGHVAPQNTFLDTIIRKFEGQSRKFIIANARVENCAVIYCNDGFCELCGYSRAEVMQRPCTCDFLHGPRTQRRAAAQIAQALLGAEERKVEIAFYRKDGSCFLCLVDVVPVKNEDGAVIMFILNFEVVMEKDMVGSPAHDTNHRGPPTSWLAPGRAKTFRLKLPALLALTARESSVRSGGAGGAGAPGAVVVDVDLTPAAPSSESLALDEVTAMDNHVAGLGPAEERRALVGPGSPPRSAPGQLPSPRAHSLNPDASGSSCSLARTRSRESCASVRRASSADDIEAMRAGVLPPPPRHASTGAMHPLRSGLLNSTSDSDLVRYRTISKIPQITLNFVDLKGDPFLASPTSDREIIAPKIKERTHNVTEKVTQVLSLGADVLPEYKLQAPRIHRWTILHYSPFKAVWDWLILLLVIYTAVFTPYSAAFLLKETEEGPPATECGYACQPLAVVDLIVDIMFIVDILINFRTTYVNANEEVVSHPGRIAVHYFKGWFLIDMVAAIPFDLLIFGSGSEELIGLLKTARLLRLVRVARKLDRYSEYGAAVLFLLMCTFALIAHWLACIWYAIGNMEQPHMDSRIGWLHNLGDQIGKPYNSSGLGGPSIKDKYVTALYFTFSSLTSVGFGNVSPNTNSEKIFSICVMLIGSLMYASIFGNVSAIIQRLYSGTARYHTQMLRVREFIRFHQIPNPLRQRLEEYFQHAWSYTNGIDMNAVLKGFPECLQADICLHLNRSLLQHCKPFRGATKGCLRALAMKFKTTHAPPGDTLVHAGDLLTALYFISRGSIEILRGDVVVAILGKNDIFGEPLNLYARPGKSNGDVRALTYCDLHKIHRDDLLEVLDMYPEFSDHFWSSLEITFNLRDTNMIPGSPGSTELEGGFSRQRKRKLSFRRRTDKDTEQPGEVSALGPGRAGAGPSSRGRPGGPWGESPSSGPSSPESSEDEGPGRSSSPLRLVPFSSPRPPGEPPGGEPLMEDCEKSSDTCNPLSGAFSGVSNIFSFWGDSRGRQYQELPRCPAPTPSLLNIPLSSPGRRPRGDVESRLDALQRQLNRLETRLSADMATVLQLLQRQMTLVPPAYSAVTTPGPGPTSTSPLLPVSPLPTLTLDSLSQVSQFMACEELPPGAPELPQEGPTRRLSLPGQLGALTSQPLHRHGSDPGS

Row | SMILES | MIC (Staphylococcus aureus [1]) [µg/mL] | MIC (Staphylococcus aureus [2]) [µg/mL] | MIC (Streptococcus pneumoniae) [µg/mL] | MIC (Enterococcus faecium) [µg/mL] | MIC (Escherichia coli) [µg/mL] | MIC (Acinetobacter baumannii) [µg/mL] | MIC (Pseudomonas aeruginosa) [µg/mL] | IC50 [3] [µM] | Ratio (Staphylococcus aureus [4])
1 | Cc1cc(S(C)(=O)=O)nc2c(CCC34CCC(NCc5ccc6c(n5)NC(=O)CO6)(CC3)CO4)c(F)cnc12 | 0.125 (≈ 0.225 µM) | 0.125 (≈ 0.225 µM) | 4 (≈ 7.2 µM) | 4 (≈ 7.2 µM) | 8 (≈ 14.4 µM) | 2 (≈ 3.6 µM) | 32 (≈ 57.6 µM) | 12.4 | <4
2 | Cc1cc(S(C)(=O)=O)nc2c(CCC34CCC(NCc5ccc6c(n5)NC(=O)CO6)(CC3)CO4)ccnc12 | 1 (≈ 1.86 µM) | 1 (≈ 1.86 µM) | 16 (≈ 29.8 µM) | 16 (≈ 29.8 µM) | 32 (≈ 59.5 µM) | 16 (≈ 29.8 µM) | 32 (≈ 59.5 µM) | 6.71 | <4
3 | O=C1COc2ccc(CNC34CCC(CCc5c(F)cnc6ccc(N7CCS(=O)(=O)CC7)nc56)(CC3)OC4)nc2N1 | 1 (≈ 1.68 µM) | 1 (≈ 1.68 µM) | 4 (≈ 6.7 µM) | 16 (≈ 26.8 µM) | 16 (≈ 26.8 µM) | 16 (≈ 26.8 µM) | 16 (≈ 26.8 µM) |  | <4
4 | CN(C)c1cnc2c(CCC34CCC(NCc5ccc6c(n5)NC(=O)CO6)(CC3)CO4)c(F)cnc2c1 | 16 (≈ 31.6 µM) | 16 (≈ 31.6 µM) | 16 (≈ 31.6 µM) | 16 (≈ 31.6 µM) | 16 (≈ 31.6 µM) | 16 (≈ 31.6 µM) | 16 (≈ 31.6 µM) | 18.4 | <4
5 | COc1ccc2ncc(F)c(C[C@H](O)C34CCC(NCc5ccc6c(n5)NC(=O)CO6)(CC3)CO4)c2n1 | 0.02 (≈ 0.0393 µM) | 0.06 (≈ 0.118 µM) | 0.05 (≈ 0.0981 µM) | 0.5 (≈ 0.981 µM) | 2 (≈ 3.93 µM) | 0.5 (≈ 0.981 µM) | 8 (≈ 15.7 µM) |  | 
6 | O=C1COc2ccc(CNC34CCC(CCc5c(F)cnc6cc(Cl)cnc56)(CC3)OC4)nc2N1 | 8 (≈ 16.1 µM) | 8 (≈ 16.1 µM) | 32 (≈ 64.3 µM) | 32 (≈ 64.3 µM) | 32 (≈ 64.3 µM) | 32 (≈ 64.3 µM) | 32 (≈ 64.3 µM) |  | 
7 | COc1ccc2nc(N3CCN(C)CC3)c(F)c(CCC34CCC(NCc5ccc6c(n5)NC(=O)CO6)(CC3)CO4)c2n1 | 32 (≈ 54.1 µM) | 16 (≈ 27 µM) | 32 (≈ 54.1 µM) | 32 (≈ 54.1 µM) | 32 (≈ 54.1 µM) | 32 (≈ 54.1 µM) | 32 (≈ 54.1 µM) |  | <4
8 | COc1nc2c(CCC34CCC(NCc5ccc6c(n5)NC(=O)CO6)(CC3)CO4)c(F)cnc2cc1F | 0.031 (≈ 0.0606 µM) | 0.016 (≈ 0.0313 µM) | 0.25 (≈ 0.489 µM) | 2 (≈ 3.91 µM) | 4 (≈ 7.82 µM) | 1 (≈ 1.95 µM) | 8 (≈ 15.6 µM) |  | 
9 | COc1nc2c(CCC34CCC(NCc5ccc6c(n5)NC(=O)CO6)(CC3)CO4)ccnc2cc1F | 0.125 (≈ 0.253 µM) | 0.063 (≈ 0.128 µM) | 2 (≈ 4.05 µM) | 4 (≈ 8.1 µM) | 4 (≈ 8.1 µM) | 2 (≈ 4.05 µM) | 16 (≈ 32.4 µM) |  | 
10 | N#Cc1ccc2ncc(F)c(CCC34CCC(NCc5ccc6c(n5)NC(=O)CO6)(CC3)CO4)c2n1 | 0.063 (≈ 0.129 µM) | 0.063 (≈ 0.129 µM) | 1 (≈ 2.05 µM) | 2 (≈ 4.09 µM) | 2 (≈ 4.09 µM) | 1 (≈ 2.05 µM) | 8 (≈ 16.4 µM) |  | 
11 | COc1cc(CCC23CCC(NCc4ccc5c(n4)NC(=O)CO5)(CC2)CO3)c2nc(OC)ccc2n1 | 4 (≈ 7.91 µM) | 1 (≈ 1.98 µM) | 8 (≈ 15.8 µM) | 8 (≈ 15.8 µM) | 8 (≈ 15.8 µM) | 8 (≈ 15.8 µM) | 8 (≈ 15.8 µM) |  | 
12 | COc1ccc2nc(N3CCNCC3)c(F)c(CCC34CCC(NCc5ccc6c(n5)NC(=O)CO6)(CC3)CO4)c2n1 | 8 (≈ 13.8 µM) | 8 (≈ 13.8 µM) | 8 (≈ 13.8 µM) | 8 (≈ 13.8 µM) | 8 (≈ 13.8 µM) | 8 (≈ 13.8 µM) | 8 (≈ 13.8 µM) |  | <4
13 | COc1cc(C)c2ncc(F)c(CCC34CCC(NCc5ccc6c(n5)NC(=O)CO6)(CC3)CO4)c2n1 | 0.016 (≈ 0.0315 µM) | 0.008 (≈ 0.0158 µM) | 0.25 (≈ 0.493 µM) | 2 (≈ 3.94 µM) | 4 (≈ 7.88 µM) | 2 (≈ 3.94 µM) | 16 (≈ 31.5 µM) |  | 
14 | COc1ccc2ncc(Cl)c(CCC34CCC(NCc5ccc6c(n5)NC(=O)CO6)(CC3)CO4)c2n1 | 0.008 (≈ 0.0157 µM) | 0.008 (≈ 0.0157 µM) | 0.25 (≈ 0.49 µM) | 1 (≈ 1.96 µM) | 2 (≈ 3.92 µM) | 1 (≈ 1.96 µM) | 8 (≈ 15.7 µM) |  | 
15 | COC(=O)c1ccc2ncc(F)c(CCC34CCC(NCc5ccc6c(n5)NC(=O)CO6)(CC3)CO4)c2n1 | 0.063 (≈ 0.121 µM) | 0.063 (≈ 0.121 µM) | 16 (≈ 30.7 µM) | 16 (≈ 30.7 µM) | 8 (≈ 15.3 µM) | 2 (≈ 3.83 µM) | 16 (≈ 30.7 µM) |  | 
16 | CN(C)c1nc2c(CCC34CCC(NCc5ccc6c(n5)NC(=O)CO6)(CC3)CO4)ccnc2cc1F | 1 (≈ 1.97 µM) | 1 (≈ 1.97 µM) | 16 (≈ 31.6 µM) | 16 (≈ 31.6 µM) | 16 (≈ 31.6 µM) | 16 (≈ 31.6 µM) | 16 (≈ 31.6 µM) |  | 
17 | CN(C)c1nc2c(CCC34CCC(NCc5ccc6c(n5)NC(=O)CO6)(CC3)CO4)ccnc2cc1C(F)(F)F | 8 (≈ 14.4 µM) | 8 (≈ 14.4 µM) | 8 (≈ 14.4 µM) | 8 (≈ 14.4 µM) | 8 (≈ 14.4 µM) | 8 (≈ 14.4 µM) | 8 (≈ 14.4 µM) |  | 
18 | O=C1COc2ccc(CNC34CCC(CCc5c(F)cnc6cccnc56)(CC3)OC4)nc2N1 | 0.5 (≈ 1.08 µM) | 0.25 (≈ 0.539 µM) | 4 (≈ 8.63 µM) | 4 (≈ 8.63 µM) | 4 (≈ 8.63 µM) | 1 (≈ 2.16 µM) | 16 (≈ 34.5 µM) |  | 
19 | COc1cnc2c(CCC34CCC(NCc5ccc6c(n5)NC(=O)CO6)(CC3)CO4)ccnc2c1 | 32 (≈ 67.3 µM) | 8 (≈ 16.8 µM) | 64 (≈ 135 µM) | 64 (≈ 135 µM) | 64 (≈ 135 µM) | 64 (≈ 135 µM) | 64 (≈ 135 µM) |  | 
20 | COc1cc2nccc(CCC34CCC(NCc5ccc6c(n5)NC(=O)CO6)(CC3)CO4)c2nc1C#N | 8 (≈ 16 µM) | 2 (≈ 4 µM) | 32 (≈ 63.9 µM) | 32 (≈ 63.9 µM) | 32 (≈ 63.9 µM) | 32 (≈ 63.9 µM) | 32 (≈ 63.9 µM) |  | 
21 | CN(C)c1ccc2ncc(F)c(CCC34CCC(NCc5ccc6c(n5)NC(=O)CO6)(CC3)CO4)c2n1 | 0.25 (≈ 0.494 µM) | 0.25 (≈ 0.494 µM) | 2 (≈ 3.95 µM) | 4 (≈ 7.9 µM) | 8 (≈ 15.8 µM) | 8 (≈ 15.8 µM) | 8 (≈ 15.8 µM) |  | 
22 | O=C1COc2ccc(CNC34CCC(CCc5ccnc6ccc(C(F)(F)F)nc56)(CC3)OC4)nc2N1 | 2 (≈ 3.89 µM) | 1 (≈ 1.95 µM) | 32 (≈ 62.3 µM) | 16 (≈ 31.2 µM) | 32 (≈ 62.3 µM) | 8 (≈ 15.6 µM) | 64 (≈ 125 µM) |  | 
23 | Cc1ccc2ncc(F)c(CCC34CCC(NCc5ccc6c(n5)NC(=O)CO6)(CC3)CO4)c2n1 | 0.25 (≈ 0.524 µM) | 0.125 (≈ 0.262 µM) | 2 (≈ 4.19 µM) | 4 (≈ 8.38 µM) | 8 (≈ 16.8 µM) | 2 (≈ 4.19 µM) | 16 (≈ 33.5 µM) |  | 
24 | O=C1COc2ccc(CNC34CCC(CCc5c(F)cnc6ccc(O)nc56)(CC3)OC4)nc2N1 | 0.5 (≈ 1.04 µM) | 0.25 (≈ 0.521 µM) | 4 (≈ 8.34 µM) | 8 (≈ 16.7 µM) | 4 (≈ 8.34 µM) | 2 (≈ 4.17 µM) | 32 (≈ 66.7 µM) |  | 
25 | O=C1COc2ccc(CNC34CCC(CCc5ccnc6cc(Cl)cnc56)(CC3)OC4)nc2N1 | 64 (≈ 133 µM) | 16 (≈ 33.3 µM) | 64 (≈ 133 µM) | 64 (≈ 133 µM) | 64 (≈ 133 µM) | 64 (≈ 133 µM) | 64 (≈ 133 µM) |  | 
